Results on 89 compounds are retold here after PubChem BioAssay AID467 (The Scripps Research Institute Molecular Screening Center, 2006).

This test has as its system parental cell line counter screen, S1P1 agonist assay readout. As to the kind of experiment: signal in parental cells, counter-screen for S1P1 agonist project (AID 467).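 Further: agonist potency measured against forskolin stimulation plus an EC20 level of SEW2871.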

Each structure is given as a SMILES string. Calls of active or inactive are those of the source. How the calls were made is not given here.

In the case of `Cc1ccc(OCc2nc(-c3ccccc3)no2)c(C)c1`, the EC50 was > 95.1 µM (inactive).

For `COc1ccc(N=c2scc(-c3ccc(S(=O)(=O)N4CCOCC4)cc3)n2CCCO)cc1`, the EC50 is > 30 µM (inactive).

Take `Nc1ccc(N2CCCCCC2)cc1`: the EC50 was 9.89 µM.

On to `Clc1ccc(CCNc2ncnc3nc[nH]c23)cc1`, for which the EC50 is 33.6 µM (inactive).

For `O=C(Oc1cccc(C(=O)N2CCOCC2)c1)c1ccc(Br)cc1`, the EC50 is > 95.1 µM (inactive).

On to `COc1cc(C#CC#CCN2CCCCC2)ccc1O`, for which the EC50 is 63.9 µM (inactive).

Turning to `O=C(c1cc(-c2ccc(O)cc2)on1)N1CCc2ccccc2C1`, the EC50 was > 30 µM (inactive).

Regarding `CC1(C)CC(=O)C(C=Nc2ccc3[nH]ncc3c2)=C(O)C1`, the EC50 was > 30 µM (inactive).

Turning to `Cn1ncnc2c(=O)n(C)c(=O)nc1-2`, the concentration giving a half-maximal response (EC50) was 1.8 µM.

On to `COc1ccc2c(c1)-c1nc(NC(=O)c3cccs3)sc1CC2`, for which the EC50 was 16.2 µM (inactive).

`Cc1nc(NC(C)c2ccccc2)c2oc3ccccc3c2n1` (centres undefined): the EC50 is 52.9 µM (inactive).

With `CC(=O)c1c(C)[nH]c(C(=O)OCCCCN2C(=O)c3ccccc3C2=O)c1C`, the EC50 is > 10 µM (inactive).

For the compound `O=C(Nc1ccc(Cl)cc1)N1CCC(c2nc(-c3ccc(F)cc3)no2)CC1`, the EC50 is 20 µM (inactive).

As for `CC(C)Cc1cc(C(=O)Nc2cc(Br)ccc2O)no1`, the EC50 is > 10 µM (inactive).

In the case of `Cc1ccccc1OCC(=O)Nc1ccc(N2CCN(C(=O)C(C)C)CC2)c(Cl)c1`, the EC50 is 26 µM (inactive).

`CC(C)OCCCNc1ncnc2c1[nH]c1ccccc12`: the EC50 is 43 µM (inactive).

As to `CCOC(=O)C1C(=O)C=C(c2ccc(OC)cc2)CC1c1ccco1` (centres undefined), the EC50 is > 30 µM (inactive).

Consider `OC1(c2cccc(C(F)(F)F)c2)CCN(c2ncnc3c2[nH]c2ccc(F)cc23)CC1`, for which the EC50 was > 3 µM (inactive).

In the case of `O=C(OC1CCCCC1)c1ccc(NC(=O)c2ccco2)cc1`, the EC50 is > 30 µM (inactive).

Consider `C=CCn1c(SCC(=O)c2cccs2)nc2sc(CC)cc2c1=O`, for which the EC50 was 58.6 µM (inactive).

Regarding `CC(C)(C)SCCNS(=O)(=O)c1ccccc1`, the EC50 was > 95.1 µM (inactive).

For the compound `CCCN(C(=O)c1cccs1)c1nnc(-c2ccncc2)s1`, the EC50 was > 95.1 µM (inactive).

Regarding `COc1ccc2c(c1)CCc1c(C(=O)Nc3ccc(OC)c(OC)c3)noc1-2`, the EC50 was > 95.1 µM (inactive).

Consider `CC(=O)N1CCCc2cc(S(=O)(=O)NCCC3=CCCCC3)ccc21`, for which the EC50 is > 95.1 µM (inactive).

Turning to `CCOC(=O)c1ccc(NC(=O)CCc2nc(-c3ccc(Cl)cc3)no2)cc1`, the EC50 is > 95.1 µM (inactive).

On to `Cc1ccc(O)c(NC(=O)CCC2CCCCC2)c1`, for which the EC50 is 50.1 µM (inactive).

As for `CC(=O)N1C=CN(C(C)=O)C(c2cn(C)c3ccccc23)C1c1cn(C)c2ccccc12` (centres undefined), the EC50 was > 30 µM (inactive).

Take `OC(c1cccc(OCc2ccccc2)c1)c1nnc(-c2ccccc2)o1` (centres undefined): the EC50 was > 30 µM (inactive).

For the compound `Cc1cc(C(=O)CSc2nnc(-c3ccncc3)n2-c2ccccc2)c(C)n1C`, the EC50 is > 95.1 µM (inactive).

As for `Cn1nc(C(C)(C)C)cc1C(=O)NCc1ccc(N2CCCC2=O)cc1`, the EC50 was > 30 µM (inactive).

In the case of `CCCc1ccc(OCc2nc(-c3ccc(NC(=O)c4ccco4)cc3)no2)cc1`, the EC50 was > 95.1 µM (inactive).

For `CCN(CC)C(=O)CSC(=Nc1ccccc1F)NC#N`, the EC50 is > 95.1 µM (inactive).

Regarding `Clc1ccc(OCc2nnc(SCc3nc4ccccc4[nH]3)n2Cc2ccco2)cc1`, the EC50 was 36.4 µM (inactive).

For `CC1=CC(C)(C)Nc2ccc(OC(=O)c3cccnc3)cc21`, the half-maximal effective concentration (EC50) is 4.43 µM.

Regarding `CCN(C(=O)C1CCCCC1)c1nnc(-c2cccnc2)s1`, the EC50 was > 95.1 µM (inactive).

Take `CCOc1ccc(-c2nc(-c3ccccc3C)no2)cc1`: the EC50 is > 95.1 µM (inactive).

`COC(=O)c1cc(CSc2nnc(-c3ccccc3)c(-c3ccccc3)n2)oc1C`: the EC50 is > 95.1 µM (inactive).

`c1csc(CCNc2ncnc3sc4c(c23)CCC4)c1`: the EC50 was 20.3 µM (inactive).

As for `CCOc1ccc(-c2nc(-c3ccccc3)no2)cc1OCC`, the EC50 is > 95.1 µM (inactive).

As for `Cc1cc(C(=O)N2CCN(C(c3ccccc3)c3ccccc3)CC2)no1`, the EC50 is > 95.1 µM (inactive).

For the compound `COc1ccccc1-n1nnnc1S(=O)(=O)Cc1ccc(Cl)cc1`, the half-maximal effective concentration (EC50) is 3.05 µM.

On to `Cc1onc(-c2ccccc2Cl)c1C(=O)Oc1cc(N)n(S(=O)(=O)c2ccc(F)cc2)n1`, for which the EC50 was 9.2 µM.

For `COC(=O)c1c(C)n(-c2ccc(OC)cc2)c2ccc(O)cc12`, the EC50 was 20.1 µM (inactive).

In the case of `CCOC(=O)c1ccc2c(c1)C(=O)N(C1CCCCC1)C2=O`, the EC50 is > 95.1 µM (inactive).

As to `COc1ccc(Cc2nc(-c3ccc(-n4cccc4)cc3)no2)cc1OC`, the EC50 is > 95.1 µM (inactive).

For the compound `CCN=c1scc(-c2ccc3c(c2)NC(=O)CO3)n1N=C1CCCC1`, the EC50 is > 30 µM (inactive).

Consider `CCN(CC)C(=O)Oc1ccc2c(=O)c(-c3ccccc3)coc2c1`, for which the EC50 is > 95.1 µM (inactive).

With `Cc1cccc(-c2nc(CSCC(=O)N3CCN(c4ccccn4)CC3)c(C)o2)c1`, the EC50 is 31 µM (inactive).

For `O=C1CC(N2CCN(C/C=C/c3ccccc3)CC2)C(=O)N1CCc1ccccc1` (centres undefined), the EC50 is > 30 µM (inactive).

Take `COc1ccc(-c2nc(-c3ccc(NC(=O)c4ccncc4)cc3)no2)cc1OC`: the EC50 is > 30 µM (inactive).

With `COc1ccc(S(=O)(=O)N2CCN(c3ccc(C)cc3C)CC2)cc1OC`, the EC50 is 28.4 µM (inactive).

Turning to `CC(C)(C)C1CCC2(CC1)C(C#N)=C(SCC(=O)Nc1ccccc1)NC(=O)C2C#N` (centres undefined), the EC50 was 7.15 µM.

On to `O=C(CSC1=NCCS1)Nc1ccnc2ccccc12`, for which the EC50 is 11.1 µM (inactive).

As to `CC(=O)c1sc(NC(=O)C2(F)C(F)(F)C(F)(F)C(F)(F)C(F)(F)C2(F)F)nc1C`, the EC50 was 31.2 µM (inactive).

With `CCOC(=O)c1sc2nc(NC(=O)C(C)(C)C)sc2c1C`, the EC50 was > 10 µM (inactive).

On to `CC1CCc2nc(NC(=O)CSc3nc4ccccc4o3)sc2C1` (centres undefined), for which the EC50 was > 95.1 µM (inactive).

Turning to `Oc1c(C(c2ccco2)N2CCN(C(c3ccccc3)c3ccccc3)CC2)sc2ncnn12` (centres undefined), the EC50 is 39.5 µM (inactive).

Turning to `Cc1cccc(-c2nc(CSCC(=O)N3CCN(Cc4ccc5c(c4)OCO5)CC3)c(C)o2)c1`, the EC50 is 30.5 µM (inactive).

Consider `Clc1ccc(NCn2cncn2)nc1`, for which the EC50 was > 95.1 µM (inactive).

For the compound `O=C(Nc1ccc(S(=O)(=O)NCc2ccco2)cc1)c1ccc2ccccc2n1`, the EC50 was > 95.1 µM (inactive).

As to `CCOC(=O)CN(C(=O)CSc1nnc(-c2cccc(OC)c2)o1)c1ccc(F)cc1`, the EC50 was > 95.1 µM (inactive).

`CN1CCN(C(=O)CSc2nc(-c3cccs3)cc(-c3cccs3)c2C#N)CC1`: the EC50 is 19.7 µM (inactive).

In the case of `COc1ccc(/C=N/O)cc1COc1ccc(NC(C)=O)cc1`, the EC50 is > 95.1 µM (inactive).

As for `O=S(=O)(c1cccs1)N1CCN(CC(O)COc2cc(Cl)ccc2Cl)CC1` (centres undefined), the EC50 is 24.6 µM (inactive).

For `CCOc1ccc(C(=O)Nc2c(C(N)=O)oc3ccccc23)cc1`, the EC50 is > 95.1 µM (inactive).

Turning to `O=S(=O)(Nc1ccc2c(c1)OCCO2)c1ccc2oc3ccccc3c2c1`, the EC50 is 16.4 µM (inactive).

Regarding `c1ccc(-c2ccc(-c3nc(-c4cccnc4)no3)cc2)cc1`, the EC50 was > 95.1 µM (inactive).

For `Cc1cccc(NC(=O)Nc2ccc(C#N)cc2)n1`, the EC50 was 43 µM (inactive).

For `Cc1cc(C(=O)N2CCN(C(c3ccccc3)c3ccccc3)CC2)on1`, the EC50 was > 95.1 µM (inactive).

For the compound `CCC(NC(=O)Nc1nnc(C(F)(F)F)s1)(C(F)(F)F)C(F)(F)F`, the EC50 was > 95.1 µM (inactive).

In the case of `COc1ccccc1-c1cc(C(=O)Nc2cc(C)nn2-c2ccccc2)no1`, the EC50 was > 95.1 µM (inactive).

In the case of `Clc1ccc(CSc2nnc(-c3ccncc3)o2)c(Cl)c1`, the EC50 was > 95.1 µM (inactive).

Turning to `CCOC(=O)c1cnc(-n2nc(C)cc2C)nc1NC1CCCCC1`, the concentration for a half-maximal effect (EC50) was 5.93 µM.

For `CC(=O)c1ccc(N2CCN(c3ccc(C(F)(F)F)cn3)CC2)cc1`, the EC50 is > 95.1 µM (inactive).

On to `COc1ccc(-n2c(C)c(C(C)=O)c3cc(O)ccc32)cc1`, for which the EC50 was > 95.1 µM (inactive).

Take `COC(=O)c1sc(NC(=O)c2ccc(OC)cc2OC)nc1C`: the EC50 is > 95.1 µM (inactive).

As to `CCN(C1CCCCC1)S(=O)(=O)c1ccc(S(=O)(=O)NCc2ccncc2)cc1`, the EC50 is 76.5 µM (inactive).

Regarding `Cc1cccc(-c2nc(C#N)c(NC3CCCCC3)o2)c1`, the EC50 was > 95.1 µM (inactive).

Turning to `CCC1CCCCN1C(=O)CSc1nnc(-c2c[nH]c3ccccc23)o1` (centres undefined), the EC50 is > 30 µM (inactive).

For the compound `CC(C)c1cc(C(F)(F)F)n2nc(C(=O)Nc3ccc4c(c3)OCO4)cc2n1`, the EC50 is > 95.1 µM (inactive).

With `CCOc1ccc(-c2nnc(-c3cccnc3)o2)cc1OCC`, the EC50 was > 95.1 µM (inactive).

As to `Cc1ccc(-n2c(C)cc(C(=O)COC(=O)c3c(C)noc3C)c2C)cc1`, the EC50 is 37.6 µM (inactive).

As to `CCc1cc2c(N3CCN(c4ccccc4)CC3)ncnc2s1`, the EC50 was 16.3 µM (inactive).

With `O=C(CCN1CCc2ccccc2CC1)c1ccc2c(c1)OCCO2`, the concentration giving a half-maximal response (EC50) is 4.84 µM.

As to `CC1=C(/C=C/C(C)=C/C=C/C(C)=C/C(=O)O)C(C)(C)CCC1`, the EC50 was > 95.1 µM (inactive).

Turning to `CCCOc1ccc(S(=O)(=O)NCc2ccc(OC)cc2)cc1`, the EC50 was > 30 µM (inactive).

For `CCOC(=O)C1CCN(c2ncnc3c2oc2ccccc23)CC1`, the EC50 was 45.1 µM (inactive).

As for `CC(C)[C@H](NC(=O)OC(C)(C)C)c1nnc(SCC(=O)Nc2ccc(Br)cc2)o1`, the EC50 was > 30 µM (inactive).

In the case of `Cc1ccccc1CS(=O)(=O)c1nnc([C@H](CC(C)C)NC(=O)OC(C)(C)C)o1`, the EC50 was 2.89 µM.

A word on the EC50: it is the concentration giving half of the maximal effect.
